This experiment deals with T1, FLuc-C-HiBiT (Photinus pyralis, UniProt P08659).
T1 construct: firefly luciferase with C-terminal HiBiT tag, E. coli expressed
The experiment is described as follows: biochemical. Conditions: enzyme activity, 10 uM ATP; read-out: IC50 or SDR50 (mM) / FLuc E.

T1 sequence (P08659 whole entry, looked up): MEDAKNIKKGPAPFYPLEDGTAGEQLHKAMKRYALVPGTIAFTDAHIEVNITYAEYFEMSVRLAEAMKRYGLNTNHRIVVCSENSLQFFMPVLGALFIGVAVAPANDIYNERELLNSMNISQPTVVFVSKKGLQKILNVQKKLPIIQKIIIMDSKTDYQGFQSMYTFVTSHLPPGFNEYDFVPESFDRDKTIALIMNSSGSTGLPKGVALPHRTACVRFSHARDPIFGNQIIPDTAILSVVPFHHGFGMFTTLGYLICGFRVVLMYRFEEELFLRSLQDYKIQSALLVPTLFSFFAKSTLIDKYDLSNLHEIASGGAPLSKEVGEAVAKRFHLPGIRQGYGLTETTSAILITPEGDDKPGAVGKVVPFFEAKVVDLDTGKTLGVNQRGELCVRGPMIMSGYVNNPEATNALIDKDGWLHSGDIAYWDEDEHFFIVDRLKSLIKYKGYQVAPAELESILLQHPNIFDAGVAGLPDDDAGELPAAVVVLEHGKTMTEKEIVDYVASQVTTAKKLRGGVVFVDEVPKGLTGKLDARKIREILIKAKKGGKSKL

For the molecule `COc1ccc(NC(=O)Nc2cccc(-c3ccc(N4CCCCC4)nn3)c2)c(OC)c1` [NCGC00427636-01], the IC50 was found to be 0.000989 mM.

For `COc1ccc(C)cc1NC(=O)Nc1cccc(-c2ccc(N3CCCCC3)nn2)c1` [NCGC00427638-01], the IC50 came out at 0.00111 mM.

Consider `O=C(Nc1cccc(F)c1)Nc1cccc(-c2ccc(N3CCCCC3)nn2)c1` [NCGC00427644-01], for which the IC50 was 0.000989 mM.

Consider `COc1ccc(CNC(=O)Nc2cccc(-c3ccc(N4CCCCC4)nn3)c2)cc1` [NCGC00427646-01], for which the IC50 worked out at 0.000495 mM.

For the molecule `Cc1nnc(CN(C)c2ccc(-c3nc(-c4cccc(Cl)c4)no3)cn2)o1` [NCGC00427683-01], the IC50 came out at 0.00495 mM.

Turning to `O=C(c1ccc2oc(-c3cccc(F)c3)nc2c1)N1CCCCC1CCO` (stereo not shown) [NCGC00427691-01], the IC50 is 0.014 mM.

`COc1ccc(OCc2cc(C(=O)N3C[C@H]4CC[C@H]3C4)n[nH]2)c(Cl)c1` [NCGC00428264-01]: the IC50 is over 0.03 mM.

Take `O=C1OCCN1CCNc1ccc(-c2nc(-c3ccccc3F)no2)cn1` [NCGC00428584-01]: the IC50 amounted to 0.0124 mM.

As to `Cc1ccccc1-c1noc(-c2ccc(NC(C)c3cnn(C)c3)nc2)n1` (stereo not shown) [NCGC00428942-01], the IC50 worked out at 0.000989 mM.

In the case of `O=C(Nc1ccccc1)C1CCN(C(=O)N2CC3CC(C2)[C@H]2CCCC(=O)N2C3)CC1` (stereo partly shown) [NCGC00428953-01], the IC50 was over 0.03 mM.

In the case of `Cc1nccn1CCN(C)c1ccc(-c2nc(COc3ccccc3)no2)cn1` [NCGC00428976-01], the IC50 is 0.00989 mM.

For the molecule `Cc1c(-c2ccccc2F)[nH]c2ccc(CNC(=O)C3CCCN(C(N)=O)C3)cc12` (stereo not shown) [NCGC00429038-01], the IC50 was 0.00556 mM.

In the case of `CN(CCc1cn[nH]c1)c1ccc(-c2nc(-c3ccccc3F)no2)cn1` [NCGC00429241-01], the IC50 turned out to be 0.00313 mM.

On to `C=CCCC(=O)N1CCOc2c(O)cc(-c3nc4ccccc4s3)cc2C1` [NCGC00429409-01], for which the IC50 is over 0.03 mM.

As for `CCC(=O)Nc1ccc2nnc(-c3ccc(C(=O)Nc4ccc5c(c4)OCCO5)cc3)n2c1` [NCGC00429833-01], the IC50 amounted to 0.00881 mM.

With `COc1ccc2cc(C3CN(C(=O)c4cccc(CO)c4)CCO3)ccc2c1` (stereo not shown) [NCGC00430133-01], the IC50 was 0.00248 mM.

`COc1ccc(NC(=O)N2CCc3c(C(=O)Nc4ccc5c(c4)OCO5)cccc32)cc1` [NCGC00430172-01]: the IC50 was found to be 0.000881 mM.

Regarding `O=C(Nc1ccc2c(c1)OCO2)c1cccc2c1CCN2C(=O)Nc1ccc(F)cc1` [NCGC00430184-01], the IC50 came to 0.000197 mM.

As to `CC(=O)N1CCc2ccc(C(=O)NC3CCCCCC3)cc21` [NCGC00430256-01], the IC50 came to 0.00624 mM.

Take `CCC(=O)N1CCc2ccc(C(=O)NC3CCCCC3)cc21` [NCGC00430262-01]: the IC50 stood at 0.0111 mM.

`Cc1nc(CN2CCOc3c(O)cc(-c4nc5ccccc5s4)cc3C2)no1` [NCGC00430265-01]: the IC50 is over 0.03 mM.

For `COc1ccc(C(=O)N2CCc3ccc(C(=O)Nc4ccc5c(c4)OCCO5)cc32)cc1` [NCGC00430278-01], the IC50 stood at 0.00556 mM.

As to `COc1cccc(CN2CCc3c(cc(C(=O)Nc4cc(C)ccc4OC)n3C)C2)c1` [NCGC00430592-01], the IC50 was over 0.03 mM.

As for `COc1ccc2cc(C3CN(C(=O)CCc4n[nH]c(C)n4)CCO3)ccc2c1` (stereo not shown) [NCGC00430617-01], the IC50 amounted to 0.00989 mM.

Consider `COc1ccc2cc(C3CN(C(=O)CNC(=O)C(C)C)CCO3)ccc2c1` (stereo not shown) [NCGC00430625-01], for which the IC50 is 0.0124 mM.

Turning to `Cn1c(C(=O)Nc2ccc3c(c2)OCO3)cc2c1CCN(Cc1cccc(F)c1)C2` [NCGC00430636-01], the IC50 is over 0.03 mM.

Consider `Cc1ccc(NC(=O)Nc2ccccc2)c(=O)n1CC(=O)NCC1CCCO1` (stereo not shown) [NCGC00430764-01], for which the IC50 is 0.0111 mM.

On to `CCN1CCN(C(=O)Cn2c(C)ccc(NC(=O)Nc3ccc(C)cc3)c2=O)CC1` [NCGC00430774-01], for which the IC50 worked out at 0.00495 mM.

In the case of `COc1ccccc1NC(=O)Cn1c(C)ccc(NC(=O)Nc2ccc(C)cc2)c1=O` [NCGC00430778-01], the IC50 amounted to 0.0007 mM.

As to `CCC(C)NC(=O)Cn1c(C)ccc(NC(=O)Nc2ccc(C)cc2)c1=O` (stereo not shown) [NCGC00430780-01], the IC50 stood at 0.00124 mM.

Regarding `Cc1ccc(NC(=O)Nc2ccc(C)n(CC(=O)NC(C)(C)C)c2=O)cc1` [NCGC00430790-01], the IC50 amounted to 0.00394 mM.

`Cc1ccc(NC(=O)Nc2ccc(C)n(CC(=O)NC3CCCC3)c2=O)cc1` [NCGC00430792-01]: the IC50 is 0.0007 mM.

On to `Cc1ccc(NC(=O)Nc2ccc(C)n(CC(=O)NCCC(C)C)c2=O)cc1` [NCGC00430794-01], for which the IC50 came out at 0.00111 mM.

Consider `Cc1ccc(NC(=O)Nc2ccc(C)n(CC(=O)NCC(C)C)c2=O)cc1` [NCGC00430796-01], for which the IC50 turned out to be 0.00111 mM.

In the case of `Cc1ccc(NC(=O)Nc2ccc(C)n(CC(=O)N3CCC(C)CC3)c2=O)cc1` [NCGC00430800-01], the IC50 came out at 0.00394 mM.

Turning to `Cc1ccc(NC(=O)Nc2ccc(C)n(CC(=O)NC(C)c3cccnc3)c2=O)cc1` (stereo not shown) [NCGC00430804-01], the IC50 was 0.00157 mM.

`Cc1ccc(NC(=O)Nc2ccc(C)n(CC(=O)NCCN3CCCC3)c2=O)cc1` [NCGC00430806-01]: the IC50 was found to be 0.0111 mM.

Turning to `CC(C)n1cc(-c2cc(C(=O)N3CCC(C)(C)C3)c3ccc(F)cc3n2)cn1` [NCGC00430819-01], the IC50 was found to be 0.00495 mM.

Consider `CCCNC(=O)Cn1c(C)ccc(NC(=O)Nc2ccc(OC)cc2)c1=O` [NCGC00430826-01], for which the IC50 amounted to 0.00624 mM.

`COc1ccc(NC(=O)Nc2ccc(C)n(CC(=O)N3CCCCCC3)c2=O)cc1` [NCGC00430834-01]: the IC50 was determined as 0.00989 mM.

For `COc1ccc(NC(=O)Nc2ccc(C)n(CC(=O)NCC(C)C)c2=O)cc1` [NCGC00430836-01], the IC50 is 0.00351 mM.

On to `COc1ccc(NC(=O)Nc2ccc(C)n(CC(=O)N3CCCC(C)C3)c2=O)cc1` (stereo not shown) [NCGC00430838-01], for which the IC50 amounted to 0.00785 mM.

Turning to `COc1ccc2cc(C3CN(C(=O)Cc4ccc(O)cc4)CCO3)ccc2c1` (stereo not shown) [NCGC00430869-01], the IC50 is 0.00989 mM.

For `CCn1ncc(NC(=O)Cn2ncc3cc(-c4ccc(C)cc4F)ccc32)n1` [NCGC00430893-01], the IC50 was determined as 0.0124 mM.

On to `CCN(CC)C(=O)N1CCOC(c2ccc3cc(OC)ccc3c2)C1` (stereo not shown) [NCGC00431059-01], for which the IC50 is 0.00556 mM.

In the case of `O=C(c1n[nH]cc1Cl)N1CCOC(Cc2cccc(C(F)(F)F)c2)C1` (stereo not shown) [NCGC00431816-01], the IC50 is over 0.03 mM.

As for `CC(C)(C)n1cc(-c2cc(C(=O)N3C[C@H]4CC[C@H]3C4)c3ccccc3n2)cn1` [NCGC00432050-01], the IC50 came to 0.007 mM.

In the case of `COc1ccc(-n2cc(C3=CCN(CCN4CCOCC4)CC3)cn2)cc1` [NCGC00432106-01], the IC50 turned out to be 0.00989 mM.

`Nc1ccc(C(=O)N2CCCn3nc(C(=O)Nc4ccccc4)cc3C2)cn1` [NCGC00432306-01]: the IC50 came to 0.0111 mM.

On to `COc1cc(NC(=O)c2ccc(-c3ncn[nH]3)cc2)ccc1NC(=O)C(C)(C)C` [NCGC00432557-01], for which the IC50 is 0.0124 mM.

For `O=C(O)C1(CCc2ccccc2)CCCN(c2ncnc3[nH]cnc23)C1` (stereo not shown) [NCGC00432626-01], the IC50 was over 0.03 mM.

As for `CCn1cc(-c2ccc(F)cc2)cc1C(=O)O` [NCGC00432651-01], the IC50 is over 0.03 mM.

Take `CCn1cc(-c2ccc(Cl)cc2)cc1C(=O)O` [NCGC00432653-01]: the IC50 is over 0.03 mM.

Consider `CCn1cc(-c2ccc(C)cc2)cc1C(=O)O` [NCGC00432661-01], for which the IC50 was over 0.03 mM.

For the molecule `Cn1cc(-c2ccc(Cl)cc2)cc1C(=O)O` [NCGC00432667-01], the IC50 was over 0.03 mM.
